# Test results reported in EP3046573B1, “AMYLIN ANALOGUES” (Zealand Pharma A/S, priority 2013, dated 2015).
# Numbered stars: 1 amine (or outer) side, 2 acyl side, 3 side chain; on linkers, the order of the positions; unused ones are H or OH. Bridge positions count the residues as written; N and C are the ends. Square brackets hold non-standard residues; d marks the D form. Peptide text beside a SMILES is read from it. * marks the point of attachment. C20 diacid = O=C(O)CCCCCCCCCCCCCCCCCCC(=O)*; γGlu = O=C(O)[C@H](CCC(=O)[*:2])N[*:1]; NMeI = CC[C@H](C)[C@H](NC)C(=O)O; Sar = CNCC(=O)O
# Columns and labels:
# [1] = target: T1, human calcitonin receptor (hCTR2) (Homo sapiens, UniProt P30988); assay: hCTR2 assay: induction of cAMP (AlphaScreen cAMP Assay kit) in COS7 cells expressing hCTR2; assay type: cell-based
# T1 construct: expressed in transfected cells
# T1 sequence (P30988 25-474): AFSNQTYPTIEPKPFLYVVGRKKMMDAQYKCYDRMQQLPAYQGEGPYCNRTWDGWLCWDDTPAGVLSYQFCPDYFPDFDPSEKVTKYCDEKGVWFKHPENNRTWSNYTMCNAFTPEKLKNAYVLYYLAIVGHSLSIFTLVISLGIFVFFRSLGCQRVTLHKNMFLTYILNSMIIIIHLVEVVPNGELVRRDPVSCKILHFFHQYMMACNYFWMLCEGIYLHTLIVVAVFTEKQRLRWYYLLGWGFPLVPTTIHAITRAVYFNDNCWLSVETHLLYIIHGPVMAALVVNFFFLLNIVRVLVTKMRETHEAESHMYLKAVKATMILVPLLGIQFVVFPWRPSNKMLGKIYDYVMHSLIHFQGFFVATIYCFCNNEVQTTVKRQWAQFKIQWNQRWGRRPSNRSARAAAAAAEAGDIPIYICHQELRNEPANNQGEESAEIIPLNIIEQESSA
# Summary of the method: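 Cells were seeded one day ahead, washed, then exposed to rising peptide concentrations for 15 min at 37° C in the presence of 100 µM IBMX. After lysis for 10 min at room temperature, cAMP was quantified by AlphaScreen and EC50 values derived by 4PL fitting.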
# [2] = Solubility assessment (turbidity absorbance at 325 nm); assay type: physicochemical; conditions: stock 2 mg/ml diluted 1:1, ambient temperature (typically 25°C), n=1; for Solubility, Acetate buffer pH 4: 100 mM acetate buffer pH 4.0; for Solubility, Acetate buffer pH 5: 100 mM acetate buffer pH 5.0; for Solubility, Histidine buffer pH 6: 100 mM histidine buffer pH 6.0; for Solubility, Histidine buffer pH 7: 100 mM histidine buffer pH 7.0; for Solubility, Phosphate buffer pH 6: 100 mM phosphate buffer pH 6.0; for Solubility, Phosphate buffer pH 7: 100 mM phosphate buffer pH 7.0; for Solubility, Phosphate buffer pH 7.5: 100 mM phosphate buffer pH7.5
# Summary of the method: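 Turbidity read as absorbance at 325 nm (also 280 nm), single samples at ambient temperature (typically 25°C); ≤ 0.02 units counts as ≥ 1 mg/ml soluble. Samples made by 1:1 dilution of a 2 mg/ml acidic stock into 100 mM acetate, histidine or phosphate buffers, pH 4.0–7.5.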
# [3] = Assessment of chemical stability: normalized purity by RP-HPLC after incubation at 40 °C; assay type: physicochemical; conditions: normalized purity (T=0 set to 100), 0.2 mg/ml; for Chem. stability; 7 days, 40°C pH 4: pH 4, 7 days; for Chem. stability; 7 days, 40°C pH 7.5: pH 7.5, 7 days; for Chem. stability; 7 days, 40°C pH 9: pH 9, 7 days
# Experimental: Samples of each test peptide were dissolved in MilliQ™ water, and the pH of the solution was adjusted to pH 4, pH 7.5 or pH 9, respectively, using either HCI or NaOH. The final peptide concentration was 0.2 mg/ml. Samples were placed in glass vials and incubated at 40 °C. The samples were analyzed by RP-HPLC on a C8 column with gradient elution using an ammonium formate/water eluent system, or on a C18 column with gradient elution using a trifluoroacetic acid/water eluent system. The area-percentage (area-%) of the main peak after incubation time T = t (relative to time T = 0) was determined by UV spectroscopy at 220 nm.
# The purity was first determined as follows: Purity(area−%) = (area of main peak/total area of all peaks) × 100. [formula]
# The purity was then normalized between time points by setting purity at time 0 (T=0) to 100 for each pH value for a given peptide, as follows: Normalised area−%at time t(T = t) = [area−%(T = t)/area−%(T = 0)] × 100. [formula]
# The normalized purity values in Table 2 were determined after 7 days of incubation. Table 2. EC50, chemical stability and fibrillation data for compounds of the invention
# [4] = system: Zucker diabetic fatty (ZDF) rats; assay: Glycemic control in Zucker diabetic fatty rats; assay type: in vivo, male Zucker diabetic fatty (ZDF) rats; conditions: 40 nmol/kg sc twice daily (bid), P < 0.001
# Experimental: (§1) Whole-blood glucose levels were determined on tail-vein blood samples by the Biosen (EKF Diagnostic, Germany) enzyme-based electrode method. Blood samples were analyzed for glycated hemoglobin (HbA1c) using a Cobas c111 analyzer (Roche Diagnostics, Mannheim, Germany). Plasma insulin levels were measured using a Meso Scale Discovery (MSD) system (Rockville, MD, USA). Liver fat content was determined by magnetic resonance (MR) scanning using an Echo systems MR scanner. Fat depots were measured by weighing of excised fat.
# 84 male Zucker diabetic fatty (ZDF) rats (9-10 weeks of age) were used in this study. The animals were housed in groups of n = 2. Stratification of the animals was based on non-fasting blood glucose (primary), changes in non-fasting blood glucose measured from the arrival of the animals until one week before the initiation of the study (secondary) and body weight (tertiary). The animals were further divided into two "teams" with a pair-fed group (group 2) allocated to team 2. […] The amount of food eaten by the animals treated with Compound 82 (30 nmol/kg, team 1) each day was determined, and the same amount was given to a vehicle-treated pair-fed group of animals the following day. […]
# Statistical analyses were performed using GraphPad™ Prism version 5. The measured parameters were compared using one- way ANOVA followed by Dunnett's multiple comparison test. […]
# [5] = system: male Zucker diabetic fatty (ZDF) rats; assay: Efficacy testing: glycemic control in Zucker diabetic fatty rats; assay type: in vivo
# Experimental: as §1
# 84 male Zucker diabetic fatty (ZDF) rats (9-10 weeks of age) were used in this study. The animals were housed in groups of n = 2. Stratification of the animals was based on non-fasting blood glucose (primary), changes in non-fasting blood glucose measured from the arrival of the animals until one week before the initiation of the study (secondary) and body weight (tertiary). The animals were further divided into two "teams" with a pair-fed group (group 2) allocated to team 2. Animals from group 2 were pair-fed in order to compare between the contribution made by reduced food intake and by drug-induced effects on glycemic control. The amount of food eaten by the animals treated with Compound 82 (30 nmol/kg, team 1) each day was determined, and the same amount was given to a vehicle-treated pair-fed group of animals the following day.
# Rats were treated for 4 weeks with Compound 82 (3, 30 and 100 nmol/kg, sc, every (ev.) 5th day), Compound 18 (30 nmol/kg sc, every 5th day), or the GLP-1 analogue liraglutide (40 nmol/kg sc, twice daily (bid)).
# The effects of the compounds on glycemic control were investigated by measurement of non-fasting and fasting blood glucose levels and HbA1c levels.
# Statistical analyses were performed using GraphPad™ Prism version 5. The measured parameters were compared using one- way ANOVA followed by Dunnett's multiple comparison test. Comparison between the pair-fed vehicle-treated group and the Compound 82 (30 nmol/kg) group was done using Student's two-tailed and unpaired t-test. Differences were considered statistically significant at p < 0.05.
Compound,EC50 [1],"Solubility, Acetate buffer pH 4 [2]","Solubility, Acetate buffer pH 5 [2]","Solubility, Histidine buffer pH 6 [2]","Solubility, Histidine buffer pH 7 [2]","Solubility, Phosphate buffer pH 6 [2]","Solubility, Phosphate buffer pH 7 [2]","Solubility, Phosphate buffer pH 7.5 [2]","Chem. stability; 7 days, 40°C pH 4 [3]","Chem. stability; 7 days, 40°C pH 7.5 [3]","Chem. stability; 7 days, 40°C pH 9 [3]",blood glucose levels (non-fasting and fasting) [4],"terminal HbA1c levels ([5]; 40 nmol/kg sc twice daily (bid), 4 weeks, vehicle 8.7 ± 0.2)","blood glucose lowering effect ([5]; 40 nmol/kg sc twice daily, P < 0.001)"
"CC[C@H](C)[C@@H](C(=O)N[C@@H](CC(C)C)C(=O)N[C@@H](CO)C(=O)N[C@@H](CO)C(=O)N[C@H](C(=O)N[C@@H](CC(N)=O)C(=O)N[C@H](C(=O)NCC(=O)N[C@@H](CO)C(=O)N[C@@H](CC(N)=O)C(=O)N[C@H](C(=O)N1CCC[C@H]1C(N)=O)[C@@H](C)O)C(C)C)[C@@H](C)O)N(C)C(=O)[C@H](C)NC(=O)CN(C)C(=O)[C@H](Cc1ccccc1)NC(=O)[C@H](CC(N)=O)NC(=O)[C@H](CC(N)=O)NC(=O)[C@H](CO)NC(=O)[C@@H](CO)NC(=O)[C@H](Cc1c[nH]cn1)NC(=O)[C@H](Cc1c[nH]cn1)NC(=O)[C@H](CC(C)C)NC(=O)[C@H](Cc1ccccc1)NC(=O)[C@H](CCC(=O)O)NC(=O)[C@H](C)NC(=O)[C@H](CC(C)C)NC(=O)[C@H](CCCNC(=N)N)NC(=O)[C@H](CCC(N)=O)NC(=O)[C@@H](NC(=O)[C@H](C)NC(=O)[C@@H]1CSSC[C@H](NC(=O)[C@H](CCCNC(=N)N)NC(=O)CC[C@H](NC(=O)CCCCCCCCCCCCCCCCCCC(=O)O)C(=O)O)C(=O)N[C@@H](CC(N)=O)C(=O)N[C@@H]([C@@H](C)O)C(=O)N[C@@H](C)C(=O)N[C@@H]([C@@H](C)O)C(=O)N1)[C@@H](C)O [Compound 29, [19CD]-isoGlu-RC()NTATC()ATQRLAEFLHH-DSer-SNNF-Gly(Me)-A-Ile(Me)-LSSTNVGSNTP-NH2] ({C20 diacid-γGlu}-RCNTATCATQRLAEFLHH[dS]SNNF[Sar]A[NMeI]LSSTNVGSNTP-NH2; disulfide 2-7)",0.42 nM,SS (SS indicates solubility ≥ 1mg/ml),SS (SS indicates solubility ≥ 1mg/ml),SS (SS indicates solubility ≥ 1mg/ml),SS (SS indicates solubility ≥ 1mg/ml),SS (SS indicates solubility ≥ 1mg/ml),SS (SS indicates solubility ≥ 1mg/ml),SS (SS indicates solubility ≥ 1mg/ml),100 area-%,69 area-%,53 area-%,–,–,–
"CC[C@H](C)[C@@H](C(=O)N[C@@H](CC(C)C)C(=O)N[C@@H](CO)C(=O)N[C@@H](CO)C(=O)N[C@H](C(=O)N[C@@H](CC(N)=O)C(=O)N[C@H](C(=O)NCC(=O)N[C@@H](CO)C(=O)N[C@@H](CC(N)=O)C(=O)N[C@H](C(=O)N1CCC[C@H]1C(N)=O)[C@@H](C)O)C(C)C)[C@@H](C)O)N(C)C(=O)[C@H](C)NC(=O)CN(C)C(=O)[C@H](Cc1ccccc1)NC(=O)[C@H](CC(N)=O)NC(=O)[C@H](CC(N)=O)NC(=O)[C@H](CO)NC(=O)[C@H](CO)NC(=O)[C@H](CCCNC(=N)N)NC(=O)[C@H](Cc1c[nH]cn1)NC(=O)[C@H](CC(C)C)NC(=O)[C@H](Cc1ccccc1)NC(=O)[C@H](CCC(=O)O)NC(=O)[C@H](C)NC(=O)[C@H](CC(C)C)NC(=O)[C@H](CCCNC(=N)N)NC(=O)[C@H](CCC(N)=O)NC(=O)[C@@H](NC(=O)[C@H](C)NC(=O)[C@@H]1CSSC[C@H](NC(=O)[C@H](Cc2c[nH]c3ccccc23)NC(=O)CC[C@H](NC(=O)CCCCCCCCCCCCCCCCCCC(=O)O)C(=O)O)C(=O)N[C@@H](CC(N)=O)C(=O)N[C@@H]([C@@H](C)O)C(=O)N[C@@H](C)C(=O)N[C@@H]([C@@H](C)O)C(=O)N1)[C@@H](C)O [Compound 125, [19CD]-isoGlu-WC()NTATC()ATQRLAEFLHRSSNNF-Gly(Me)-A-Ile(Me)-LSSTNVGSNTP-NH2] ({C20 diacid-γGlu}-WCNTATCATQRLAEFLHRSSNNF[Sar]A[NMeI]LSSTNVGSNTP-NH2; disulfide 2-7)",0.061 nM,SS (SS indicates solubility ≥ 1mg/ml),SS (SS indicates solubility ≥ 1mg/ml),SS (SS indicates solubility ≥ 1mg/ml),SS (SS indicates solubility ≥ 1mg/ml),II (II indicates solubility ≤ 1 mg/ml),SS (SS indicates solubility ≥ 1mg/ml),SS (SS indicates solubility ≥ 1mg/ml),77 area-%,70 area-%,68 area-%,–,–,–
liraglutide,–,–,–,–,–,–,–,–,–,–,–,significant blood glucose lowering effect,–,–
liraglutide [reference compound],–,–,–,–,–,–,–,–,–,–,–,–,5.8 ± 0.2%,significant
